This is an account of results in patent publication US6177405A, “Cyclic analogs of tuftsin” (priority 1992, dated 2001).

Residues, ends and D or L forms follow the SMILES beside them.

Assay type in all cases: cell-based
Data set [1] deals with Human polymorphonuclear leukocytes (PMNs). Put plainly: Phagocytosis assay (fluorescent microspheres engulfed per PMN). On the procedure: Phagocytosis Assay Human polymorphonuclear leukocytes (PMNs) were prepared from venous blood of healthy donors. Heparinized blood was mixed with dextran and kept at 37° C. for 1 hour. The leukocyte-rich plasma was collected and centrifuged. The resulting pellet was washed with Hank's balanced salt solution (HBSS). The pellet was then suspended into HBSS, layered over Lymphocyte Separation Medium (LSM) and centrifuged. The sedimented cells were washed with HBSS. Contaminant erythrocytes were lysed by suspending the cells in sterile water for 15 seconds. The isotonicity was then restored by adding 10× HBSS. After centrifuging, the PMNs were washed with HBSS, suspended in the same medium, counted, and adjusted to 1×10^6 viable cells/ml (viability>95% by trypan blue dye exclusion). Cells (0.5×10^6 /well) were plated in 24 well plate and placed in a 37° C. CO2 incubator for 30 min to form a monolayer. Thereafter the supernatant was aspirated. Tuftsin or analog in 250 μl HBSS and 2.5×10^7 fluorescent microspheres (2 μm diameter) in 250 μl HBSS, were added to each well resulting in a particle to PMN ratio of 50:1, mixed, and incubated for 15 min. The supernatant was then quickly aspirated and each well washed with HBSS. One ml of trypsin (0.25% in saline) was added to each well and the plate incubated for 15 min to detach the cells and remove non-engulfed particles associated on the surface of PMN. The cells were transferred, layered over 2 ml fetal bovine serum (FBS), and centrifuged. The supernatant containing free particles were removed. The cell pellet was suspended, fixed in 2% paraformaldehyde, and plated again into a well. After 10 min, particles engulfed per PMN were counted under a microscope (100 cells per well). The mean values from triplicates were used to calculate percent phagocytosis increase over control mean value. Using purified cyclo[[…]] (SEQ ID no. 1) as an example, we have examined in vitro biological activities of this peptide. A phagocytosis assay was performed to compare the activity of cyclo[[…]] (SEQ ID no. 1) to that of tuftsin. The optimum concentration of tuftsin in this assay is 5 μg/ml. However, the optimum concentration for cyclo[[…]]

Data set [2] deals with THP-1 (human acute monocytic leukemia) cell line. Put plainly: Thymidine incorporation assay (growth stimulation effect). The following applies: THP-1 cells, at 0.001 and 10 μg/ml; FIG. 2. On the procedure: Thymidine Incorporation Assay
THP-1 (a human acute monocytic leukemia line) cells were subcultured in RPMI-1640 medium with 10% FBS. Next day THP-1 cells were collected, washed with RPMI-1640 medium with 2% FBS, and plated into well with peptide (1×10^6 cell in 1 ml). The plate was incubated for 18 hours. ^3 H-thymidine (0.1 μCi per well) was then introduced. The plate was incubated for another hour. The cells were collected into a tube using 1 ml of cold HBSS. After washing the cells twice, the cells were mixed with 0.2 ml of 0.1% sodium dodecyl sulfate, and transferred to a liquid scintillation vial for determination of radioactivity. The mean values from triplicates were used to calculate percent increase over control mean value.
To examine the growth stimulating effect of peptides, a thymidine incorporation experiment was performed using THP-1 (human acute monocytic leukemia) cell line.
A general note: Uptake of a labelled nucleoside into DNA is a usual measure of proliferation.

For a further data set, the system named is human NK cells. Put plainly: Tumor cell cytotoxicity assay by human NK cells (4 hour 51Cr release, K-562 targets). The settings on record: effector:target ratios of 25:1 and 50:1, peptide concentration 1 μg/ml, FIG. 3. On the procedure: Tumor Cell Cytotoxicity Assay by Human NK Cells
Heparinized blood was layered over Leukoprep tube (30 ml per tube), and centrifuged. The mononuclear cells at interphase were collected, washed with HBSS, suspended in RPMI-1640 medium with 10% FBS (15 ml per 30 ml starting blood), plated on Petri dishes, and incubated for 1 hour. Non-adherent cells were collected, suspended in RPMI-1640 medium with 5% FBS, and adjusted to 1×10^6 /ml for 4 hour ^51 Cr release assay. The viability of this NK cell enriched fraction was assessed with trypan blue.
The tumor target cells, K-562, were harvested from culture, washed with RPMI-1640 medium with 5% FBS, and centrifuged. Pelleted cells of 2×10^6 K-562 were suspended into 0.2 ml of 100 μCi of ^51 CrO4 in saline, and labelled for 90 min in the incubator. The labelled target cells were washed with RPMI-1640 medium with 5% FBS, suspended in the same medium, and adjusted to a suspension of 2×10^5 /ml. […] Filters containing radioactive supernatants were counted on a γ counter, and counts per minutes (cpm) were recorded. Percent cytotoxicity (% specific lysis) was calculated by the following formula: […]
Spontaneous cpm was obtained by incubating the tumor target cells alone in the medium. Maximum cpm was obtained by releasing the radioactivity from the target cells by treatment with Triton X-100. […]

`C[C@@H](O)[C@@H]1NC(=O)CNC(=O)[C@H](CCCNC(=N)N)NC(=O)[C@@H]2CCCN2C(=O)[C@H](CCCCN)NC1=O` [cyclo[Thr-Lys-Pro-Arg-Gly]] (cyclo(GTKPR)): in data set [1] (0.1 μg/ml of cyclic peptide vs 5 μg/ml of tuftsin), the “extent of phagocytosis compared with tuftsin at 5 μg/ml” value is reported as “no significant difference”. For the same compound, the “potency in phagocytosis assay compared with tuftsin” value in data set [1] (at lower concentrations of 0.01 and 0.1 μg/ml, Student t-test, FIG. 1) was “significantly superior potency over tuftsin”. The “optimum concentration in phagocytosis assay” value in data set [1] (human PMNs, 15 min incubation, particle to PMN ratio 50:1, FIG. 1) was found to be 0.1 µg/mL. Moreover, the “optimum concentration, fold lower than tuftsin” value in data set [1] (phagocytosis assay, human PMNs) is recorded as 50 fold. Moreover, in data set [2], the “growth stimulating activity (3H-thymidine incorporation) compared with tuftsin” value is “significantly greater activities than tuftsin”. In addition, the “enhancement of NK tumor cell cytotoxicity compared with tuftsin” value with human NK cells was “significantly greater cytotoxicity”.
